Laboratory results: ChEMBL document CHEMBL1136898, “Conformational analysis of N,N-disubstituted-1,4-diazepane orexin receptor antagonists and implications for receptor binding” (Bioorg Med Chem Lett, 2009)

Tests used:
[1] = biological target: T1, Orexin/Hypocretin receptor type 1 (Homo sapiens, UniProt O43613); experiment: Binding affinity to OX1 receptor
T1 sequence (O43613 whole entry): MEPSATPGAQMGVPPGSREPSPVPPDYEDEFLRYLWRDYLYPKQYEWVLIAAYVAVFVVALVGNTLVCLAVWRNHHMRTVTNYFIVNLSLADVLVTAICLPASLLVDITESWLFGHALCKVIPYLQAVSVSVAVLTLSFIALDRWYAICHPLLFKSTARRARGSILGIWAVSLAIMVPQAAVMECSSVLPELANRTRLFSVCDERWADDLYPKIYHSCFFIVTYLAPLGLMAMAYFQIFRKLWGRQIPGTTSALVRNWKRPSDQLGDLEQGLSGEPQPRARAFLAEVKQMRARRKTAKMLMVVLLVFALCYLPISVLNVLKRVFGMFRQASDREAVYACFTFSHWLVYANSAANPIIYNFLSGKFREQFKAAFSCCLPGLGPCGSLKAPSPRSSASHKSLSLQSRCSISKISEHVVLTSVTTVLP

[2] = biological target: T2, Orexin receptor type 2 (Homo sapiens, UniProt O43614); experiment: Binding affinity to OX2 receptor
T2 sequence (O43614 whole entry): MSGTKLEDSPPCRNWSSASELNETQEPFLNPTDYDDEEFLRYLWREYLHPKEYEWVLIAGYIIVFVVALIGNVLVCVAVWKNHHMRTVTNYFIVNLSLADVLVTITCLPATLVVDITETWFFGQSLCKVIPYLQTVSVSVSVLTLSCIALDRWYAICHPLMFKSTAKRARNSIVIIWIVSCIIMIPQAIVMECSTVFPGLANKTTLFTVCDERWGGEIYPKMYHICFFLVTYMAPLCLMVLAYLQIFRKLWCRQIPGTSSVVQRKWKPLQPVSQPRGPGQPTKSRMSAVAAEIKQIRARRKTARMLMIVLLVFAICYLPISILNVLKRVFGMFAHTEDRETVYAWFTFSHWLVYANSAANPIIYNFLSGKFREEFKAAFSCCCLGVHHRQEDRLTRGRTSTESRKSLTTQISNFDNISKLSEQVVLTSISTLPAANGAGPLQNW

Row | Structure (SMILES) | Ki [1] | Ki [2]
1 | Cc1ccc(-n2nccn2)c(CN2CCCN(c3ncc4ccccc4n3)CC2)c1 | 0.93 µM | 0.24 µM
2 | Cc1ccc(-n2nccn2)c(C(=O)N2CCCN(c3ccc4ccccc4c3)CC2)c1 | 0.002 µM | 0.002 µM
3 | O=C(C1CCCCC1)N1CCCN(c2ncc3ccccc3n2)CC1 | 9.8 µM | 0.55 µM
4 | O=C1c2cc(ccc2-n2nccn2)CCCCCCc2ccc3cc(ccc3c2)N2CCCN1CC2 | 0.051 µM | 0.042 µM
